What all share (assay type): cell-based
The subject of assay [1] is human melanoma cell line A-2058. Nature of the assay: MTT cell proliferation assay, human melanoma cell line A-2058. The settings on record: for Mean OD: MTT Optical Density at 570 nm. The text has this:
This example describes the in vitro bioassay used for determining the anti-proliferative activity of test compounds and cyclodextrin-encapsulated propolis complexes against human skin cancer cell lines. The present example tests anti-proliferative efficacy against the human melanoma cell line, A-2058. The cyclodextrin-encapsulated propolis complexes tested are those described in Example 1. The NZ propolis was the same propolis used to manufacture the cyclodextrin complexes CD1-CD3. The Brazilian Green propolis was the same propolis used to manufacture the cyclodextrin complex CD4. The test samples were dissolved in 15% Ethanol (EtOH)/HBSS to make a working solution, which was then diluted 10 times to give a final concentration in the cells of 50 μg/ml unless indicated otherwise.
(§1) The three human skin cancer cell lines were: • 1) Human Melanoma cell line (A-2058). • 2) Human Epidermoid (Squamous) Carcinoma cell line (A-431). • 3) Human Basal Cell Carcinoma cell line (TE 354.T).
(§2) The cell lines were revived from cryostorage and cultured in the presence of the test and reference samples. An MIT assay was then performed on the cultures to determine the effect of the samples on the cell viability and proliferation. The percentage standard error of the mean was assessed and extreme outliers were removed if the SEM%>15. Preliminary statistical significance was assessed with an independent Student t-test at α<0.05 (with and without outliers). The methodology was based on the procedures reported by: • Ahn, N G, Campbell J S (1993). […] Proc Natl Acad Sci. 90: 5143-5147. • Galan-Cobo, A et al (2014). Functional inhibition of aquaporin-3 with a gold-based compound induces blockage of cell proliferation. J Cellul. Physiol. 229: 1787-1801. • Roomi, M W, Kalinovsky, J et al (2013) Effect of a nutrient mixture on matrix metalloproteinase-9 dimers in various human cancer cell lines. Inter 3 Oncol. 44: 936-942. • Huang, H C, Lin, M K et al (2013). Cardenolides and bufadienolide glycosides from Kalanchoe tubiflora and evaluation of cytotoxicity. Planta Medica. 79: 1362-1369. • Tilli, C M L J, Stavast-Kooy, A J W et al (2003). The garlic-derived organosulfur component ajoene decreases basal cell carcinoma tumor size by inducing apoptosis. Arch Dermatol Res. 295: 117-123.
• 1. Human melanoma cell line (A-2058, ATCC CRL11147) was obtained from ATCC, Bethesda, Md., USA. • 2. Human squamous (epidermoid) carcinoma cell line (A-431, ATCC CRL1555) was obtained from ATCC, Bethesda, Md. USA. • 3. Human basal cell carcinoma cell line (TE 354.T, ATCC CRL7762) was obtained from ATCC, Bethesda, Md., USA. • 4. Dulbecco's Modified Eagle's Medium (DMEM) was obtained from GIBCO (12100-038). 10% Foetal Bovine Serum (FBS), 100 U/ml Penicillin and […] Streptomycin were added before use. • 5. Penicillin-streptomycin solution, stored at −20° C. consisting of 10000 units/ml penicillin and 10 mg/ml streptomycin in 0.9% NaCl was obtained from Sigma (#P-0781). • 6. Trypsin-EDTA solution consisting of 0.25% Trypsin/EDTA was obtained from Invitrogen (#15400054). • 7. Phosphate buffered saline (PBS) was prepared in-house. • 8. Hanks Balanced Salt Solution (HBSS), stored at 4° C. was obtained from GIBCO (#14185-052). • 9. Foetal Bovine Serum (FBS) stored at −20° C. was obtained from GIBCO (#10091-148). • 10. MTT Reagent, 100 mg/vial, was obtained from Sigma (M-2128) and then dissolved in PBS at 10 mg/ml and stored at −20° C. A 5 mg/ml MTT solution was prepared in PBS and stored at 4° C. as the working solution. • 11. MU lysis buffer: 10% sodium dodecyl sulphate (SDS)/45% Dimethyl Formamide was prepared by dissolving 20 g SDS in 100 ml of double-distilled water (DDW), and then adding 90 ml of Dimethyl Formamide to the solution. The pH was adjusted to 4.7 by glacial acetic acid, and DDW added up to a final volume of 200 ml. • 12. 5-Fluorouracil (5-FU) was supplied by Sigma (F-6627). Three working solutions were prepared at 19.5 μg/ml. 6.5 μg/ml and 1.95 μg/ml dissolved in 15% Ethanol/HBSS. […]

Assay [2] relates to human epidermoid cancer cell line A-431. Kind of assay: MTT cell proliferation assay, human epidermoid (squamous) carcinoma cell line A-431. The following applies: A-431, 200 μg/ml; for % inhibition / inhibition at 200 µg/mL: 24 hr incubation, vs cells only; for Mean OD: MTT Optical Density at 570 nm; for inhibition at 200 µg/mL: Homo sapiens. As for the experimental part:
as §1, §2
(§3) • 1. Human melanoma cell line (A-2058, ATCC CRL11147) was obtained from ATCC, Bethesda, Md., USA. • 2. Human squamous (epidermoid) carcinoma cell line (A-431, ATCC CRL1555) was obtained from ATCC, Bethesda, Md. USA. • 3. Human basal cell carcinoma cell line (TE 354.T, ATCC CRL7762) was obtained from ATCC, Bethesda, Md., USA. • 4. Dulbecco's Modified Eagle's Medium (DMEM) was obtained from GIBCO (12100-038). 10% Foetal Bovine Serum (FBS), 100 U/ml Penicillin and […] Streptomycin were added before use. • 5. Penicillin-streptomycin solution, stored at −20° C. consisting of 10000 units/ml penicillin and 10 mg/ml streptomycin in 0.9% NaCl was obtained from Sigma (#P-0781). • 6. Trypsin-EDTA solution consisting of 0.25% Trypsin/EDTA was obtained from Invitrogen (#15400054). • 7. Phosphate buffered saline (PBS) was prepared in-house. • 8. Hanks Balanced Salt Solution (HBSS), stored at 4° C. was obtained from GIBCO (#14185-052). • 9. Foetal Bovine Serum (FBS) stored at −20° C. was obtained from GIBCO (#10091-148). • 10. MTT Reagent, 100 mg/vial, was obtained from Sigma (M-2128) and then dissolved in PBS at 10 mg/ml and stored at −20° C. A 5 mg/ml MTT solution was prepared in PBS and stored at 4° C. as the working solution. • 11. MU lysis buffer: 10% sodium dodecyl sulphate (SDS)/45% Dimethyl Formamide was prepared by dissolving 20 g SDS in 100 ml of double-distilled water (DDW), and then adding 90 ml of Dimethyl Formamide to the solution. The pH was adjusted to 4.7 by glacial acetic acid, and DDW added up to a final volume of 200 ml. • 12. 5-Fluorouracil (5-FU) was supplied by Sigma (F-6627). Three working solutions were prepared at 19.5 μg/ml. 6.5 μg/ml and 1.95 μg/ml dissolved in 15% Ethanol/HBSS. Final concentrations were 1.95 μg/ml (15 μM), 0.65 μg/ml (5 μM) and 0.195 μg/ml (1.5 μM).
(§4) • 1. Each of the cell lines was revived from cryostorage. • 2. Following initial propagation using the media described above (Characterisation of Test System, and Medium Preparation), the cell culture was subcultured using trypsin-EDTA. The media was removed and 5ml of the trypsin-EDTA solution added and incubated at 37° C. for 5 min or until all the cells had detached. The trypsin was neutralised by the addition of an equal volume of the relevant medium and centrifugation of the suspension at 300 g (1200 rpm) for 5 min at 4° C. • 3. […]
A general note: Tetrazolium assays rely on reduction of a dye to a coloured formazan, in cell work by metabolically active cells.

Assay [3] concerns human basal carcinoma cell line TE 354.T. Kind of assay: MTT cell proliferation assay, human basal cell carcinoma cell line TE 354.T. The settings on record: 200 μg/ml; for % inhibition / inhibition at 200 µg/mL: 24 hr incubation, vs cells only; for Mean OD: MTT Optical Density at 570 nm; for inhibition at 200 µg/mL: Homo sapiens. As for the experimental part:
as §1, §2, §3, §4

Setting [4] is: Homo sapiens, A2058, 24 h, A-2058, final conc. 200 μg/ml, 24 hr incubation, vs cells only.
Where [5] appears, read: A-2058, final conc. 200 μg/ml, 24 hr incubation, vs cells only.

Several values for one entry are separate records, joined by “and”; a condition that tells them apart may be missing. Equal entries are not always repeated.

From patent publication US20170209499A1, “Propolis and Extracts Thereof for the Treatment of Skin Cancers and Improvement of Skin Health” (Manuka Health New Zealand Limited, priority 2014, published 2017) come the findings set out here.

In general, inhibition refers to the percentage by which the read-out fell short of the control. A high value points to a strong effect. Turning to `O=C(O)/C=C/C=C/c1ccccc1` [5-phenyl penta-2,4-dienoic acid, 5-phenylpenta-2,4-dienoic acid], the “Mean OD” value in assay [1] (A-2058, 200 μg/ml) came out at 0.1548. The compound further displayed an inhibition at 200 µg/mL in assay [1] (setting [4]) of 23.1%.

Usually % inhibition stands for how much of the control response was suppressed. On to `COc1cc(/C=C/C(=O)OCc2ccccc2)ccc1O` [Benzyl ferulate], for which the “Mean OD” value in assay [1] (A-2058, 200 μg/ml) was found to be 0.0040. For the same compound, the “% inhibition” value in assay [1] (setting [5]) is given as “completely killed all the melanoma cells”. For the same compound, the inhibition at 200 µg/mL in assay [1] (setting [4]) came out at 98%.

Turning to `O=C(/C=C/c1ccc(O)c(O)c1)OCCc1ccccc1` [CAPE, caffeic acid phenethyl ester, reference compound], the “Mean OD” value in assay [1] (A-2058, 200 μg/ml) is 0.1018. The “% inhibition” value in assay [1] (setting [5]) is listed as 49.43%. For the same compound, at 200 µg/mL the inhibition in assay [1] (setting [4]) was 49.4%.

On to `C=C(C)CCOC(=O)/C=C/c1ccc(O)c(O)c1` [Complex 3M3BC, 3-methyl-3-butenyl caffeate], for which the “Mean OD” value is 0.1070 in assay [1] (A-2058, 20 μg/ml); 0.0475 in assay [2]; 0.2245 in assay [3]. The “% inhibition” value is reported as 46.85% in assay [1] (A-2058, final conc. 20 μg/ml, 24 hr incubation, vs cells only); “very strong inhibitors of proliferation” in assay [2]; “weak inhibitors of proliferation” in assay [3]. For the same compound, the inhibition at 20 µg/mL in assay [1] (Homo sapiens, A2058, 24 h, A-2058, final conc. 20 μg/ml, 24 hr incubation, vs cells only) turned out to be 46.8%. Besides, the inhibition at 200 µg/mL in assay [2] was found to be 81.9%; in assay [3], 16.7%.

As for `CC(=O)OC1C(=O)c2c(O)cc(O)cc2OC1c1ccccc1` (stereo not drawn) [Pinobanksin-3-o-acetate, pinobanksin-3-acetate], the “Mean OD” value is on record as 0.0777 in assay [1] (A-2058, 200 μg/ml); 0.0253 in assay [2]; 0.2416 in assay [3]. Also, the “% inhibition” value in assay [1] (setting [5]) was 61.38%; in assay [2] it was “very strong inhibitors of proliferation”; in assay [3] it was “weak inhibitors of proliferation”. Moreover, the inhibition at 200 µg/mL turned out to be 61.4% in assay [1] (setting [4]), 90.4% in assay [2] and 10.4% in assay [3].

As to `COc1cc(O)c2c(=O)cc(-c3ccccc3)oc2c1` [Tectochrysin], in assay [1] (A-2058, 200 μg/ml), the “Mean OD” value came to 0.0272. For the same compound, the “% inhibition” value in assay [1] (setting [5]) was 86.5% and 86.48%.

With `O=C(O)/C=C/c1ccc(O)cc1` [p-coumaric acid, reference compound], the “Mean OD” value in assay [1] (A-2058, 200 μg/ml) amounted to 0.2136. The same compound registered an inhibition at 200 µg/mL in assay [1] (setting [4]) of 0%.

Regarding `O=C1C[C@@H](c2ccccc2)Oc2cc(O)cc(O)c21` [pinocembrin], the “Mean OD” value in assay [1] (A-2058, 200 μg/ml) is given as 0.0013. For the same compound, the “% inhibition” value in assay [1] (setting [5]) was “completely killed all the melanoma cells”. The compound further had an inhibition at 200 µg/mL in assay [1] (setting [4]) of 99.3%.
